Where “and” joins values, the source holds several entries; their conditions need not be identical. Identical values can stand only once. Entries after “also recorded” stand apart in the source; their conditions may differ.
Experiments:
expression of ELAM = assay: Cell-ELAM (E-selectin) assay in LPS/IL-1β stimulated endothelial cells; assay type: cell-based; conditions: for ELAM production (in words): activated endothelial cells
Experimental: Cell-ELAM Assay. Endothelial-Leukocyte Adhesion Molecule (ELAM), also known as E-selectin, is expressed on the surface of endothelial cells. In this assay, lipopolysaccharide (LPS) and IL-1β are used to stimulate the expression of ELAM; test agents are tested for their abilities to reduce this expression, in accordance with studies showing that reduction of leukocyte adhesion to endothelial cell surface is associated with decreased cellular damage (e.g., Takada, M., Et al., Transplantation 64: 1520–25, 1997; Steinberg, J. B., et al., J. Heart Lung Trans. 13:306–313, 1994).
Endothelial cells may be selected from any of a number of sources and cultured according to methods known in the art; including, for example, coronary artery endothelial cells, human brain microvascular endothelial cells (HBMEC; Hess, D. C., et al., Neurosci. Lett. 213(1): 37–40, 1996), or lung endothelial cells. Cells are conveniently cultured in 96-well plates. Cells are stimulated by adding a solution to each well containing 10 μg/ml LPS and 100 pg/ml IL-1β for 6 hours in the presence of test agent (specific concentrations and time may be adjusted depending on the cell type). Treatment buffer is removed and replaced with pre-warmed Fixing Solution® (100 μl/well) for 25 minutes at room temperature. Cells are then washed 3×, then incubated with Blocking Buffer (PBS+2% FBS) for 25 minutes at room temperature. Blocking Buffer containing Monoclonal E-Selectin Antibody (1:750, Sigma Catalog #S-9555) is added to each well. Plates are sealed and stored at 4° overnight. Plates are washed 4× with 160 μL Blocking Buffer per well. Second Antibody-HRP diluted 1:5000 in Blocking Buffer is then added (100 μL/well), and plates are incubated at room temperature (protected from light) for two hours. Plates are then washed 4× with Blocking Buffer before addition of 100 μL of ABTS Substrate solution at room temperature (Zymed, Catalog #00–2024). Wells are allowed to develop for 35 minutes, before measurement at 402 nm in a Fluoroskan® Reader with shake program for 10 seconds. Positive results are recorded as a decrease in ELAM concentration in tested wells, as compared to control wells.

[1] = system: CRP production in human Hep3B cells; assay: Human Hep3B cells CRP assay (IL-1β, IL-6 and dexamethasone stimulated, CRP ELISA); assay type: cell-based; conditions: for reducing CRP production/levels (in words): Hep3B cells stimulated with IL-1B, IL-6 and dexamethasone
Description: A. Human Hep3B Cells—CRP assay. Hep3B Cell Line is obtained from the American Type Culture Collection (ATCC Catalog No. HB-8064). The Hep3B cell line was derived from liver tissue of […]. The cells are epithelial in morphology and produce tumors in nude mice. The cells produce α-fetoprotein, hepatitis B surface antigen, albumin, α-2-macroglobulin, α-1-antitrypsin, transferrin, plasminogen, complement C3 and β-lipoprotein (Knowles B B, et al., Science, 1980, 209:497–499). This cell line has been widely used to study hepatocyte cytokine and acute phase protein release (e.g., Damtew B, et al., 1993, J Immunol 150:4001–4007).
HEP3B cells are grown in Minimum Essential Medium (MEM; GIBCO) supplemented with 10% Fetal Bovine Serum (FBS; Hyclone), 1× Penicillin/Streptomycin (GIBCO, Cat #. 15140-122) and 0.1 mM non-essential amino acids (GIBCO, Catalog No. 11140-050). Cells are thawed and transferred to warm medium according to standard methods known in the art.
Cells are incubated in flasks at 37° C. with 5% CO2 in an air atmosphere incubator. HEP3B growth media is changed every 2 days until the cells reach 70–80% confluence (approx. 3–4 days). For assay, the cells are transferred to 96-well plates, seeded at 5000 cells per well in culture media, and left to grow for 7 days in a 37° C. incubator (air supplemented with 5% CO2). Media is replaced daily until assay.
Test compounds are diluted into “Stimulus Buffer” (MEM medium containing 0.1 mM non-essential amino acids, 1× penicillin/streptomycin, 10% FBS with 10 ng/ml IL-1β, 20 ng/ml IL-6 and 1 μM dexamethasone. Media is removed from the cells and is replaced with 200 μl of test dilution. Cells are returned to the incubator for three days at 37° C. CRP ELISA is then performed on supernatant from the cells, as described below.
Costar EIA/RIA plates are coated with rabbit anti-human CRP (DAKO) diluted 1:4000 in carbonate buffer (100 μl/well) for 45 minutes at 37° C. Plates are then washed 5× with CRP washing buffer (50 mM Tris-HCI, 0.3M NaCl, […], pH 8.0) using an automatic plate washer. Plates may be dried, covered and refrigerated until use. Supernatant (100 μl) is removed from each well of the test plates and added to the corresponding well of a precoated ELISA plate.
100 μl HRP-conjugated rabbit anti-human CRP (DAKO) diluted 1:500 (in CRP wash buffer) is added to each well, followed by incubation for 30 minutes at 37° C. […] Finally, 50 μl of 1M H2SO4 is added to each well and absorbance at 450 nm is immediately measured in a microtiter spectrophotometer.
CRP measured as above is normalized to cell count per well, using a cell viability assay, such as the Cell Tracker Green assay. […] Plates are immediately read using a Fluoroskan® flourometer with a 485 excitation/538 emission filter pair.

[2] = system: inflammation secondary to exposure to arachidonic acid; assay: Arachidonic acid mouse ear inflammation model; assay type: in vivo; conditions: topical to left ear, CD-1 mice, one hour after treatment
Experimental: This assay measures the ability of test compounds to prevent or reduce inflammation secondary to oxazolone or arachidonic acid.
A. Arachidonic acid. Albino male CD-1 mice, 7–9 weeks old were used in this test. A 20% (w/v) arachidonic acid solution in acetone is prepared. Twenty microliters of the arachidonic acid solution is applied to the dorsal left ear of the mouse. Immediately thereafter, test compounds (20 μL in 70% ethanol/30% propylene glycol) are applied to the left ear. The untreated right ears served as control. Mice are sacrificed by CO2 inhalation, one hour after treatment. The left and right ears are removed and 7 mm punch biopsies taken from each. The punch biopsies are weighed, and the differences calculated. […] Other non-alpha-tocopherol enriched tocopherol compositions can be tested for their ability to reduce inflammation in this model.

[3] = system: IL-6 present in edematous fluid; assay: Carrageenan-induced rat paw edema assay, IL-6 in edematous fluid; assay type: in vivo; conditions: rats

## Cc1c(C)c2c(c(C)c1O)CC[C@@](C)(CCC[C@H](C)CCC[C@H](C)CCCC(C)C)O2 (relative stereo) [alpha-tocopherol, [2R-2R*(4R*,8R*)]-3,4-dihydro-2,5,7,8-tetramethyl-2-(4,8,12-trimethyltridecyl)-2H-1-benzopyran-6-ol, reference compound]
Expression of ELAM
  ELAM production (in words): not
Expression of ELAM; at 1000 micromolar
  activity in ELAM assay: not active

## Cc1cc(O)cc2c1O[C@](C)(CCC[C@H](C)CCC[C@H](C)CCCC(C)C)CC2 (relative stereo) [delta-tocopherol, [2R-[2R*(4R*,8R*)]]-3,4-dihydro-2,8-dimethyl-2-(4,8,12-trimethyltridecyl)-2H-1-benzo-pyran-6-ol]
[1]
  reducing CRP production/levels (in words): effective; also recorded: able to reduce
Expression of ELAM
  ELAM production (in words): decreased
Expression of ELAM; endothelial cells, LPS and IL-1β, read-out: EC50 reduce the expression of ELAM
  EC50: 300 to 1000 µM and 600 µM

## Cc1cc(O)c(C)c2c1OC(C)(CCCC(C)CCCC(C)CCCC(C)C)CC2 (stereo not drawn) [beta-tocopherol, 3,4-dihydro-2,5,8-trimethyl-2-(4,8,12-trimethyltridecyl)-2H-1-benzopyran-6-ol]
[1]
  reducing CRP production/levels (in words): effective; also recorded: able to reduce
[1]; at about 3 to about 10 micromolar, Hep3B cells
  reducing CRP levels: about 50%
Expression of ELAM
  ELAM production (in words): decreased

## Cc1c(O)cc2c(c1C)OC(C)(CCCC(C)CCCC(C)CCCC(C)C)CC2 (stereo not shown) [gamma-tocopherol, 3,4-dihydro-2,7,8-trimethyl-2-(4,8,12-trimethyltridecyl)-2H-1-benzyopyran-6-ol]
[1]
  reducing CRP production/levels (in words): effective; also recorded: able to reduce
Expression of ELAM
  ELAM production (in words): decreased
[2]
  reduce inflammation secondary to arachidonic acid (ear punch weight difference): able to reduce inflammation
[3]; 10–100 mg/kg oral pretreatment over 3 days
  IL-6 levels in the edematous fluid (in words): significantly reduced
[3]; 3 days, 10–100 mg/kg/day oral pre-treatment, p<0.001
  reduction in IL-6 present in edematous fluid: 42
